Laboratory results as given in patent US6583154B1, “Compounds and methods which modulate feeding behavior and related diseases” (Amgen Inc., priority 1998, dated 2003).
Counter-ions that a name gives are not always drawn.

Columns and labels:
Male BALB-C mice = assay: IP administration of compounds in fasted male BALB-C mice, 2 hr food intake; assay type: in vivo; settings: Mus musculus; male BALB-C mice fasted 18-20 hr; 30 mg/kg (ip) in 2% tween; food given after 30 min, weighed 2 hr later; vs vehicle; read-out: inhibition of feeding (2 hr food intake)
Excerpt: Protocol For IP Administration Of Compounds In Male BALB-C Mice.
Male BALB-C mice (20-25 g)were obtained from Charles Rivers (Wilmington, Mass.) and were given at least a one week acclimation period to Amgen's animal care facilities. Animals were housed 10/cage and were provided ad libitum food and water. For testing, mice were fasted for 18-20 hr (overnight) prior to the start of the experiment. On the day of the experiment, mice were removed from group housing and placed into individual cages (without food). Test compounds or vehicle was then administered via the intraperitoneal (i.p.) route of administration. Test compounds were suspended in a 2% tween solution; the 2% tween solution was used as the vehicle treatment (control group). Group sizes for each treatment were 6-8 animals. After 30 min, premeasured food was placed into the cages. Two hours later, the food was weighed again. The difference between 2 hr weight and the premeasured weight was taken as 2 hr food intake.

Long-Evans male rats = assay: IP administration of compounds in fasted Long-Evans male rats, 2 hr food intake; assay type: in vivo; settings: Rattus norvegicus; male Long Evans rats fasted 18-20 hr; 30 mg/kg (ip) in 2% tween; food given after 30 min, weighed 2 hr later; vs vehicle; read-out: inhibition of feeding (2 hr food intake)
Experimental: Protocol for IP Administration of Compounds in Fasted Long-Evans Male Rats
Male Long Evans rats (85-100 g)were obtained from Harlan (Indianapolis, Ind.) and were given at least a one week acclimation period to Ambients animal care facilities. Animals were individually housed and were provided ad libitum food and water. For testing, rats were fasted for 18-20 hr (overnight) prior to the start of the experiment. On the test day, test compounds or vehicle was administered via the intraperitoneal (i.p.) route of administration. Test compounds were suspended in a 2% tween solution; the 2% tween solution was used as the vehicle treatment (control group). Group sizes for each treatment were 6-8 animals. After 30 min, premeasured food was placed into the cages. Two hours later, the food was weighed again. The difference between 2 hr weight and the premeasured weight was taken as 2 hr food intake.

Compound | inhibition in vivo at 30 mg/kg (Male BALB-C mice) | inhibition in vivo at 30 mg/kg (Long-Evans male rats) | melting point
Cc1nc(N2CCCCC2)c2sc(-c3ccccc3)cc2n1 [Example 32, 2-Methyl-6-phenyl-4-piperidylthiopheno[3,2-d]pyrimidine Hydrochloride] | ≥ 10% | ≥ 10% | –
Cc1nc(N2CCCCC2)c2sc(-c3ccc(Cl)cc3)cc2n1 [Example 33, 6-(4-Chlorophenyl)-2-methyl-4-piperidylthiopheno[3,2-d]pyrimidine Hydrochloride] | ≥ 10% | ≥ 10% | –
Cc1nc(N2CC=CC2)c2[nH]c(-c3ccccc3)cc2n1 [Example 61, 2-Methyl-6-phenyl-4-(pyrrolinyl)pyrrolo[3,2-d]pyrimidine Hydrochloride Monohydrate] | ≥ 10% | ≥ 10% | –
Cc1nc(N2CCCCC2C)c2[nH]c(-c3ccccc3)cc2n1 (centres unmarked) [Example 63, 2-Methyl-6-phenyl-4-(2-methylpiperidinyl)pyrrolo(3,2-d)pyrimidine Hydrochloride Monohydrate] | ≥ 10% | ≥ 10% | –
Cc1nc(N2CC=CCC2)c2[nH]c(-c3ccccc3)cc2n1 [Example 65, 2-Methyl-6-phenyl-4-(1,2,3,6-tetrahydropyridinyl)pyrrolo[3,2-d]pyrimidine Hydrochloride] | ≥ 10% | ≥ 10% | –
Nc1nc(N2CCCCC2)c2[nH]c(-c3ccccc3)cc2n1 [Example 66e, 6-Phenyl-4-piperidylpyrrolo[3,2-d]pyrimidine-2-yl Amine Hydrochloride Hydrate] | ≥ 10% | ≥ 10% | –
CCc1nc(N2CCCCC2)c2[nH]c(-c3ccccc3)cc2n1 [Example 68c, 2-Ethyl-6-phenyl-4-piperidylpyrrolo[3,2-d]pyrimidine Hydrochloride Monohydrate] | ≥ 10% | ≥ 10% | –
COc1ccc(-c2cc3nc(C)nc(N4CCCCC4)c3[nH]2)cc1 [Example 71e, 4-Methoxy-1-(2-methyl-4-piperidylpyrrolo[4,5-d]pyrimidin-6-yl)benzene Hydrochloride Monohydrate] | ≥ 10% | ≥ 10% | –
Cc1nc(N2CCCCC2)c2[nH]c(-c3ccc(O)cc3)cc2n1 [Example 72, 2-methyl-4-piperidyl-6-(4-hydroxyphenyl)pyrrolo[3,2-d]pyrimidine] | ≥ 10% | ≥ 10% | –
Cc1nc(N2CCCCC2)c2[nH]c(C3CCCCC3)cc2n1 [Example 80d, 6-Cyclohexyl-2-methyl-4-piperidylpyrrolo[3,2-d]pyrimidine Hydrochloride Hydrate] | ≥ 10% | ≥ 10% | –
Cc1nc(N2CCCCC2)c2[nH]c(-c3cc4ccccc4o3)cc2n1 [Example 85, 2-(2-Methyl-4-piperidylpyrrolo[4,5-d]pyrimidin-6-yl)benzo[b]furan Hydrochloride Monohydrate] | ≥ 10% | ≥ 10% | –
Cc1nc(N2CCCCC2)c2[nH]c(-c3ccc(Cl)cc3)cc2n1.Cl [Example 92d, 6-(4-Chlorophenyl)-2-methyl-4-piperidylpyrrolo[3,2-d]pyrimidine Hydrochloride] | ≥ 10% | – | 253.8 to 255.2 °C (dec.)
Cc1nc(N2CCCCC2)c2oc(-c3ccc(Cl)cc3)cc2n1 [Example 95c, 6-(4-Chlorophenyl)-2-methyl-4-piperidinylfurano-[3,2-d]-pyrimidine Hydrochloride Hydrate] | ≥ 10% | ≥ 10% | –
Cc1nc(N2CCCCC2)c2[nH]c(C(C)(C)C)cc2n1 [Example 97, 6-(tert-Butyl)-2-methyl-4-piperidylpyrrolo[3,2-d]pyrimidine Hydrochloride Hydrate] | ≥ 10% | ≥ 10% | –
CC1=C(c2cc3nc(C)nc(N4CCCCC4)c3[nH]2)CCC1.Cl [Example 98, 2-Methyl-6-(2-methylcyclopent-1-enyl)-4-piperidylpyrrolo[3,2-d]pyrimidine Hydrochloride] | ≥ 10% | – | 224.5 to 226 °C
Cc1nc(N2CCCCC2)c2[nH]c(-c3ccn(S(=O)(=O)c4ccccc4)c3)cc2n1 [Example 101, 3-(2-Methyl-4-piperidylpyrrolo[4,5-d]pyrimidin-6-yl)-1-(phenylsulfonyl)pyrrole Hydrochloride Hydrate] | ≥ 10% | ≥ 10% | –

Compound | inhibition in vivo at 30 mg/kg (Male BALB-C mice) | inhibition in vivo at 30 mg/kg (Long-Evans male rats) | melting point
Cc1nc(N2CCCCC2)c2[nH]c(-c3cccc(F)c3)cc2n1 [Example 103, 6-(3-Fluorophenyl)-2-methyl-4-piperidylpyrrolo[3,2-d]pyrimidine Hydrochloride Monohydrate] | ≥ 10% | – | –
Cc1nc(N2CCCCC2)c2[nH]c(-c3cccc(C(F)(F)F)c3)cc2n1 [Example 107, 2-Methyl-4-piperidyl-6-[3-(trifluoromethyl)phenyl]pyrrolo[3,2-d]pyrimidine Hydrochloride Monohydrate] | ≥ 10% | – | –
Cc1nc(N2CCCCC2)c2[nH]c(-c3cc(C)oc3C)cc2n1 [Example 108, 2,5-Dimethyl-3-(2-methyl-4-piperidylpyrrolo[4,5-d]pyrimidin-6-yl)furan Hydrochloride Monohydrate] | ≥ 10% | ≥ 10% | –
Cc1nc(N2CCCCC2)c2[nH]c(-c3ccc(C(F)(F)F)cc3)cc2n1 [Example 111, 2-Methyl-4-piperidyl-6-[4-(trifluoromethyl)phenyl]pyrrolo[3,2-d]pyrimidine Hydrochloride Hydrate] | ≥ 10% | ≥ 10% | –
Cc1nc(N2CCCCC2)c2[nH]c(-c3ccc4c(c3)OCO4)cc2n1 [Example 114, 5-[2-Methyl-4-piperidylpyrrolo[4,5-d]pyrimidin-6-yl]-2H-benzo[d]1,3-dioxolane Hydrochloride Monohydrate] | ≥ 10% | – | –
Cc1nc(N2CCCCC2)c2[nH]c(-c3cc(F)c(F)c(F)c3)cc2n1 [Example 116, 2-Methyl-4-piperidyl-6-(3,4,5-trifluorophenyl)pyrrolo[3,2-d]pyrimidine Hydrochloride Hydrate] | ≥ 10% | ≥ 10% | –
Cc1nc(N2CCCCC2)c2[nH]c(-c3ccc(Cl)c(Cl)c3)cc2n1 [Example 118, 6-(3,4-Dichlorophenyl)-2-methyl-4-piperidylpyrrolo[3,2-d]pyrimidine Hydrochloride Monohydrate] | ≥ 10% | ≥ 10% | –
COc1ccc(-c2cc3nc(C)nc(N4CCCCC4)c3[nH]2)cc1F [Example 119, 2-Fluoro-1-methoxy-4-[2-methyl-4-piperidylpyrrolo[4,5-d]pyrimidin-6-yl]benzene Hydrochloride Hydrate] | ≥ 10% | ≥ 10% | –
Cc1nc(N2CCCCC2)c2[nH]c(-c3ccc(F)c(F)c3)cc2n1 [Example 121, 6-(3,4-Difluorophenyl)-2-methyl-4-piperidylpyrrolo[3,2-d]pyrimidine Hydrochloride Hydrate] | ≥ 10% | ≥ 10% | –
Cc1nc(N2CCCCC2)c2[nH]c(-c3ccc4c(c3)OCCO4)cc2n1 [Example 125, 6-(2-Methyl-4-piperidylpyrrolo[4,5-d]pyrimidin-6-yl)-2H,3H-benzo[e]1,4-dioxane Hydrochloride Monohydrate] | ≥ 10% | – | –
Cc1nc(N2CCCCC2)c2[nH]c(-c3ccc4c(c3)CCC4)cc2n1 [Example 130, 6-Indan-5-yl-2-methyl-4-piperidylpyrrolo[3,2-d]pyrimidine Hydrochloride Monohydrate] | ≥ 10% | – | –
Cc1nc(N2CCCCC2)c2[nH]c(-c3ccc4c(c3)CCO4)cc2n1 [Example 131, 5-[2-Methyl-4-piperidylpyrrolo[4,5-d]pyrimidin-6-yl]-2,3-dihydrobenzo[b]furan Hydrochloride Hydrate] | ≥ 10% | – | –
Cc1nc(N2CC=CC2)c2[nH]c(-c3ccc(F)cc3)cc2n1 [Example 199, 6-(4-Fluorophenyl)-2-methyl-4-(3-pyrrolinyl)pyrrolo[3,2-d]pyrimidine Hydrochloride Hydrate] | ≥ 10% | – | –
Cc1nc(N2CCc3ccccc32)c2[nH]c(-c3ccccc3)cc2n1 [Example 215, 4-Indolinyl-2-methyl-6-phenylpyrrolo[3,2-d]pyrimidine Hydrochloride Hydrate] | ≥ 10% | – | –
Cc1nc(-n2cccn2)c2[nH]c(-c3ccccc3)cc2n1 [Example 218, 2-Methyl-6-phenyl-4-pyrazolypyrrolo[3,2-d]pyrimidine Hydrochloride Hydrate] | ≥ 10% | – | –
